# Measurements from patent US20230138400A1, “METHODS AND PHARMACEUTICAL COMPOSITIONS FOR REPROGRAMING IMMUNE ENVIRONMENT IN A SUBJECT IN NEED THEREOF” (INSERM (INSTITUT NATIONAL DE LA SANTE ET DE LA RECHERCHE …, priority 2016, published 2023).
# What was measured:
# B16F10 cells = experiment: Multivesicular bodies and exosome secretion of B16F10 cells treated with DDA; type: cell-based, mouse
# [1] = tested on: human and murine mammary tumor cells; experiment: Exosome secretion of mammary tumor cells treated with DDA; type: cell-based; conditions: data not shown
# E0771 tumors [2] = experiment: Immune cells infiltrated into E0771 tumors (wild type, sh control, sh LXR) after DDA, flow cytometry; type: in vivo, mouse
# Source text: FIGS. 14A-D. […] mice were grafted subcutaneously with 300 000 E0771 tumor cells knocked down for the LXR (E0771 sh LXR) or with control cells (E0771 Sh control). […] 15 days post DDA treatment, the tumor cells were collected to assess by flow cytometry the CD4 Th1 cells (CD4+ Tbet+), CD4 T regulatory (Treg: CD4+ Foxp3+), CD8 T cells cytotoxic (CTL: CD8+ granzyme +)) or not (non CTL: CD8+ Granzyme −), macrophage M1 (F4/80+ CD206− CD86+) and M2 (F4/80+ CD206+ CD86−), dendritic cells CD11c+, CD11c+CD8α+ and myeloid derived suppressive cells (MDSC: CD11b+CD11clow, LY6C+ly6Gint) infiltrated into the tumors. To observe the cytotoxic CD8 T cells, the tumor suspension was prealably stimulated 2 h in vitro with a cocktail of PMA (50 ng/ml), ionomycine (500 ng/ml) and golgistop (concentration from manufacture BD Pharmagen), then the cells were stained with specific antibodies. The bars graphs represent the ratio between (A) Th1 and Treg, (B) CTL and non CTL, (C) M1 and M2 and (D) Alls DCs (CD11c+ and CD11c+ CD8α+) and MDSC infiltrated inside the tumors: E0771 sh control or E0771 Sh LXR (knocked down for LXRβ) from mice treated or not with DDA at 0.37 ug/kg. In cells expressing the LXRβ (E0771 shcontrol cells), DDA increases the infiltration of activated immune cells (Th1, CTL, macrophages M1 and DC) and decreases the infiltration of immunosuppressives cells (Treg, non CTL, M2 and MDSC).
# FIGS. 15A-D. DDA treatment decreases the percentage of T regulatory CD4 T cells and increases the activated CD4+ and CD8+ T cells inside tumors. […] When tumors were palpable (50 mm3), the animals were treated with the vehicle (empty symbol) or s.c. 0.37 μg/kg of DDA (full symbol) every 2 days, once a day. […] post treatment, the animals were sacrified to collect the tumors. The tumors were dissociated by using gentlemac technology (Miltenyi) and then the suspension of tumor cells were stimulated with 50 ng/ml of PMA (Sigma), 500 ng/ml Ionomycin (Sigma) and 1/1000 of golgi stop (ebiosicence) during 3 h at 37° C. Tumor infiltrated Lymphocytes (TIL) isolated from E0711 tumors were stained with antibodies against CD45, CD8, CD4, PD-1, Foxp3, T-bet, IFN-g, Granzym B, PD-1 as well as live/dead stain. By gating on CD45+CD4+ (A-B) or CD45+CD8+ T cells populations (C-D), the tumor-infiltrating (A) T regulatory cells (Treg; Foxp3+), (B) effector CD4+ cells (Th1; T-bet+) and (C) cytotoxic CD8 T cells (CTL; IFN-γ+Granzym B+) were analyzed by flow cytometry. The vehicle condition is normalized at 1 and the graphs are representative of three independent experiments. (D). The graph represents the percentage of PD-1 negative CD8+ cells inside tumors of mice treated with vehicle or DDA and is representative of three independent experiments.
# FIGS. 17A-D. The silencing of LXRβ in tumor affects the effects of DDA on T regulatory and cytotoxic CD8+ T cells population infiltrated inside tumor. Animals grafted with E0711 tumors expressing the LXRβ (square symbol) or knockdown for the LXRβ expression (circle symbol) treated in FIG. 2 were sacrified to collect tumors, 15 days post treatment with the vehicle (empty symbol) or 0.37 μg/kg of DDA (full symbol). The tumor were dissociated by using gentlemac technology (Miltenyi), and the suspension of tumor cells obtained were stimulated with 50 ng/ml of PMA (Sigma), 500 ng/ml Ionomycin (Sigma) and 1/1000 of golgi stop (ebiosicence) during 3 h at 370 to analyze by flow cytometry the phenotype of tumor-infiltrated lymphocytes. By gating on CD45+CD4+ (A-B) or CD45+CD8+ T cells populations (C-D) as well as live/dead stain, the tumor-infiltrating (A) T regulatory cells (Treg; Foxp3+), (B) effector CD4+ cells (Th1; T-bet+) and (C) cytotoxic CD8 T cells (CTL; IFN-γ+Granzym B+) were determined.
# E0771 tumors [3] = experiment: as above; type: in vivo, mouse; remark: listed apart in the source
# [4] = E0771 shcontrol, 0.37 μg/kg DDA every 2 days, 15 days (FIG. 14)
# [5] = decrease expression of LXRB into the tumors (FIG. 17)
# [6] = shLXRβ vs LXRβ expressing tumors (FIG. 18)
# [7] = tumors expressing LXRβ, 0.37 μg/kg DDA, 15 days (FIG. 17)
# [8] = wild type E0771, s.c. 0.37 μg/kg DDA every 2 days (FIG. 15)
compound,measurement,setting,value
"CC(C)CCCC(C)[C@H]1CCC2C3C[C@@H](NCCc4cnc[nH]4)[C@@]4(O)C[C@@H](O)CC[C@]4(C)C3CC[C@@]21C (some centres unmarked) [DDA, 5a-hydroxy-6b-[2-(1H-imidazol-4-yl)ethylamino]cholestan-3b-ol]",production of exosome secreted into the media,B16F10 cells; data not shown,1.5 to 2 fold
same,amount of multivesicular bodies (MVB),B16F10 cells; electronic microscopy,stimulates
same,production of exosome secreted into the media,[1],also observed
same,number of macrophages M1 infiltrated into the tumors,E0771 tumors [2]; 0.37 μg/kg DDA (FIG. 18),increases
same,ratio of dendritic cells CD11+ versus MDSC,E0771 tumors [2]; 0.37 μg/kg DDA (FIG. 19),increases
same,effect of DDA on immune cell infiltration,E0771 tumors [2]; E0771 shLXR cells (FIG. 14),significantly decreased
same,"infiltration of activated immune cells (Th1, CTL, macrophages M1 and DC)",E0771 tumors [2]; [4],increases
same,"infiltration of immunosuppressives cells (Treg, non CTL, M2 and MDSC)",E0771 tumors [2]; [4],decreases
same,effect of DDA on T regulatory cells infiltrated into the tumors,E0771 tumors [2]; [5],abolished
same,effect of DDA on activated cytotoxic CD8+ T cells infiltrated into the tumors,E0771 tumors [2]; [5],abolished
same,influence of decreased LXRB expression on DDA effect on effector Th1CD4+,E0771 tumors [2]; [5],had no effect
same,LXRβ dependence of effect on macrophages M2,E0771 tumors [2]; [6],independent of the LXRβ
same,number of T regulatory cells infiltrated into the tumors,E0771 tumors [2]; [7],decreases
same,number of activated cytotoxic CD8+ T cells infiltrated into the tumors,E0771 tumors [2]; [7],increases
same,number of effector Th1CD4+ cells infiltrated into the tumors,E0771 tumors [2]; [7],increases
same,activated CD4+ T cells inside tumors,E0771 tumors [2]; [8],increases
same,activated CD8+ T cells inside tumors,E0771 tumors [2]; [8],increases
same,number of T regulatory CD4 T cells inside tumors,E0771 tumors [2]; [8],decreases
same,number of macrophages M2 infiltrated into the tumors,E0771 tumors [3]; 0.37 μg/kg DDA (FIG. 18),decreases
same,number of MDSC infiltrated into the tumor,E0771 tumors [3]; 0.37 μg/kg DDA (FIG. 19),decreases
same,ratio of dendritic cells CD11+ CD8α+ versus MDSC,E0771 tumors [3]; 0.37 μg/kg DDA (FIG. 19),increases
same,LXRβ dependence of effect on macrophages M1,E0771 tumors [3]; [6],dependent of the LXRβ
same,effects on MDSC and dendritic cells/MDSC ratio,E0771 tumors [3]; tumors knocked-down for the LXRβ (FIG. 19),abolished
